Assay results taken from ChEMBL document CHEMBL1201862, “PubChem BioAssay data set” (2004).
Values joined by “and” are separate entries in the source; they are usually repeats but may differ in a detail not shown here. Equal values may be shown once. Active and inactive are the calls of the source.

How the values were obtained:
[1] = HIV Env cell-cell fusion inhibitors, dose response, HIV entry, plate reader, dry powder (AID 687023); assay type: functional, cell-based
[2] = CEM21 cell cytotoxicity, dose response, cytotoxicity control, plate reader, dry powder (AID 687026); assay type: functional, cell-based
Aminopeptidase N = target: T1, Aminopeptidase N (Plasmodium falciparum FcB1/Columbia, UniProt O96935); test: P. falciparum M1AAP inhibitors, biochemical, fluorogenic H-Leu-NHMec substrate, 1536-well (AID 1445); parameters: species or system Plasmodium falciparum 3D7, 3D7
T1 sequence (O96935 whole entry): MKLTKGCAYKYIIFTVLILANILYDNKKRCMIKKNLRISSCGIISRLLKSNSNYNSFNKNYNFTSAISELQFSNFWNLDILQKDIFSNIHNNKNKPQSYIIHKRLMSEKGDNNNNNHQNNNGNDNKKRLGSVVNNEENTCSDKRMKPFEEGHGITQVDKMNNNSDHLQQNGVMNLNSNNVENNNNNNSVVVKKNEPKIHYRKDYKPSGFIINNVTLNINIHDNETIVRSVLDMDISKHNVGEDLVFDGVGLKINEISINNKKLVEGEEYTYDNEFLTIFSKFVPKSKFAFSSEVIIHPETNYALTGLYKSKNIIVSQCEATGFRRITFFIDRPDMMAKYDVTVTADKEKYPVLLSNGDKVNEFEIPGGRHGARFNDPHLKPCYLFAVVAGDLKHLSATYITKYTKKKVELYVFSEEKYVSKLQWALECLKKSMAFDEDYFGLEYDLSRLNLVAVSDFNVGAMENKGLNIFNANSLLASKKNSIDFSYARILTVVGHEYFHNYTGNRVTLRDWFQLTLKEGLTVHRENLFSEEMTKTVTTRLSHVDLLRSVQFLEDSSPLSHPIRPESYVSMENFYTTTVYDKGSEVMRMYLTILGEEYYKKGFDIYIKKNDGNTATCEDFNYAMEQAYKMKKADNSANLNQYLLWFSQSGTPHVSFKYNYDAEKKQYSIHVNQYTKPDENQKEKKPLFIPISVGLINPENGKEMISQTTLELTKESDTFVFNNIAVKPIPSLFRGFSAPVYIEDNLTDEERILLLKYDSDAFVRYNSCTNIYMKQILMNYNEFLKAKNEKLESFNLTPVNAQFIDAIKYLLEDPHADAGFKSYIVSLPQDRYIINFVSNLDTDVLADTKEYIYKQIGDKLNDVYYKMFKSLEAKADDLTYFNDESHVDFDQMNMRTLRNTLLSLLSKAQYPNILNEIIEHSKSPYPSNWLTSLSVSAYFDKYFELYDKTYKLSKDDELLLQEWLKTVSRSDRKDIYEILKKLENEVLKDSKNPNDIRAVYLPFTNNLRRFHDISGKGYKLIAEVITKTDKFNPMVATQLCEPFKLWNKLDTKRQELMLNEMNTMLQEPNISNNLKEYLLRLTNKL

cells [3] = assay type: functional
Kallikrein-7 = Kallikrein-7 (Homo sapiens, UniProt P49862); test: Fluorescence Intensity-based biochemical primary high throughput dose response assay to identify activators of kallikrein-7 (K7) zymogen.
Chain of Kallikrein-7 (P49862 whole entry): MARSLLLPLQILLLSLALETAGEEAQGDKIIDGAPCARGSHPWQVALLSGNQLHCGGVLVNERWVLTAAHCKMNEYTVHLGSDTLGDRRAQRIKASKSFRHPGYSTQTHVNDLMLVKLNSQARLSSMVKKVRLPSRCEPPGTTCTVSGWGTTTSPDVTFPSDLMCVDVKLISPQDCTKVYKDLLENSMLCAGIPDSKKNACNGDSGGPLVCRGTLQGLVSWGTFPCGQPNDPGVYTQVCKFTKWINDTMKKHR

[4] = target: T2, Sentrin-specific protease 7 (Homo sapiens, UniProt Q9BQF6); assay type: functional;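 further: Luminescence-based dose-response confirmation of ultra-high-throughput screening hits, measuring inhibition of SENP7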
T2 sequence (Q9BQF6 whole entry): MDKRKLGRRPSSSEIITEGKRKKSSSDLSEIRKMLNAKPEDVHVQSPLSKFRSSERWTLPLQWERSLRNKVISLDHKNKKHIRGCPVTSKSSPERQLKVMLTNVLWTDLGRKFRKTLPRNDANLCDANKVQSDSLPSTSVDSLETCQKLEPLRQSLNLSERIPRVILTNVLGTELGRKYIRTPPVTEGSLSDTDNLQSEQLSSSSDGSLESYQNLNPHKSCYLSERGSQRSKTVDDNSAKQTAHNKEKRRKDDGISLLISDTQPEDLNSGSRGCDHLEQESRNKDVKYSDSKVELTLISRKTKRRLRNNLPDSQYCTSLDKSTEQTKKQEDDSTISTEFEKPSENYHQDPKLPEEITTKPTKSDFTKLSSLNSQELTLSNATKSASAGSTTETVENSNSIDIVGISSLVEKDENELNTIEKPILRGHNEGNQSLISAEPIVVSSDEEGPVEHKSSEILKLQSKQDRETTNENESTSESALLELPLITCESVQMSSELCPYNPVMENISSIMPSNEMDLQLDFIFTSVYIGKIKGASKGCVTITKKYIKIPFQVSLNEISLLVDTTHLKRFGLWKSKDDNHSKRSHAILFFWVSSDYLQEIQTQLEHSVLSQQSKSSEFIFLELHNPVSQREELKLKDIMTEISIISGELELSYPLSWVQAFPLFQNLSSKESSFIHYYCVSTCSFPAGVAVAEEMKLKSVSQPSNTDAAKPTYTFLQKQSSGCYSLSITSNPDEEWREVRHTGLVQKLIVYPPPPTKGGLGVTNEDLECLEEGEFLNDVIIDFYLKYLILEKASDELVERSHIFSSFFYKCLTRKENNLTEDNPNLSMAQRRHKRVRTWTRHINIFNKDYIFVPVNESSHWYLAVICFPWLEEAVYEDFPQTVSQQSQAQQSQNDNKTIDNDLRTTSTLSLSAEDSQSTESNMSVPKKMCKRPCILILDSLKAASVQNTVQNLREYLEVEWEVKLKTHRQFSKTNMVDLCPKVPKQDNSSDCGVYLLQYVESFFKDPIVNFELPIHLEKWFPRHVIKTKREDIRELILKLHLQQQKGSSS

[5] = target: Oxysterols receptor LXR-beta (Homo sapiens, UniProt P55055); assay type: functional, cell-based;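 further: Cell-based luminescence dose-response assay of agonist activity at LXR, run as a confirmatory counterscreen to a daf-12 agonist screen; HEK293 cells with Gal4-LXR fusion and GAL4-driven luciferase reporter; agonist potency from rising luciferase signal of a Gal4-LXR reporter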
Chain of Oxysterols receptor LXR-beta (P55055 whole entry, the tested form may be a part): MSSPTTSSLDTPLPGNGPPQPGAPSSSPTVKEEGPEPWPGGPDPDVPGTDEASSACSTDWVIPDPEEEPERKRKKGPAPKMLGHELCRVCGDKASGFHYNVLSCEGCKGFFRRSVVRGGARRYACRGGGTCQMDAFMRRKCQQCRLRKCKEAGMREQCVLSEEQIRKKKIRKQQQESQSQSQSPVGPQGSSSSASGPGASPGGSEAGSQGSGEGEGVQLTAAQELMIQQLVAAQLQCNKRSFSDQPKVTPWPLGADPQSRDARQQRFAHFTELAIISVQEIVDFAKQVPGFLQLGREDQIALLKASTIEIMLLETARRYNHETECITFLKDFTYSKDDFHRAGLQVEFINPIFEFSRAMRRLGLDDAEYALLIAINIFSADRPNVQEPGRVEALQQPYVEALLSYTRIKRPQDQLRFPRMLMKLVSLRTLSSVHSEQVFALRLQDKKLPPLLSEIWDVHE

Nonstructural protein 1 = Nonstructural protein 1 (Influenza A virus, UniProt Q194T2); assay type: functional, Influenza A virus (A/California/07/2009(H1N1))
Chain of Nonstructural protein 1 (Q194T2 whole entry): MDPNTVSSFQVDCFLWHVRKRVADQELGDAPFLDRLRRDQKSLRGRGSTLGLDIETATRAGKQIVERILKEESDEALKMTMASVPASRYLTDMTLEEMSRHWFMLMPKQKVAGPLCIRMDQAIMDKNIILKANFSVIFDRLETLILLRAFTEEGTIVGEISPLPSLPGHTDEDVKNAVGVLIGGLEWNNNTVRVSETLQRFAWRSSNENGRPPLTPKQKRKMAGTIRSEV

Caspase-3 [6] = target: T3, Caspase-3 (Homo sapiens, UniProt P42574); assay type: functional
T3 sequence (P42574 whole entry): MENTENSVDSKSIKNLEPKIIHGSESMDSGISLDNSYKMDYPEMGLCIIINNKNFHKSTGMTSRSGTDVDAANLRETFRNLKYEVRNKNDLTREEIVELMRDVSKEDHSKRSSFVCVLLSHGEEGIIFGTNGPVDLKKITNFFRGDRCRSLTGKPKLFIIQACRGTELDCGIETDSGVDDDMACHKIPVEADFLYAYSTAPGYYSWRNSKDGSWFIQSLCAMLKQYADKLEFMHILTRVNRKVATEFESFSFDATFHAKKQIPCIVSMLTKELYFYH

[7] = target: T4, Sentrin-specific protease 6 (Homo sapiens, UniProt Q9GZR1); test: SAR Analysis of small molecule inhibitors of Sentrin-specific protease 6 (SENP6) using a Luminescent assay. [Related pubchem assays (depositor defined):AID2582, AID2599]; assay type: functional
T4 sequence (Q9GZR1 whole entry): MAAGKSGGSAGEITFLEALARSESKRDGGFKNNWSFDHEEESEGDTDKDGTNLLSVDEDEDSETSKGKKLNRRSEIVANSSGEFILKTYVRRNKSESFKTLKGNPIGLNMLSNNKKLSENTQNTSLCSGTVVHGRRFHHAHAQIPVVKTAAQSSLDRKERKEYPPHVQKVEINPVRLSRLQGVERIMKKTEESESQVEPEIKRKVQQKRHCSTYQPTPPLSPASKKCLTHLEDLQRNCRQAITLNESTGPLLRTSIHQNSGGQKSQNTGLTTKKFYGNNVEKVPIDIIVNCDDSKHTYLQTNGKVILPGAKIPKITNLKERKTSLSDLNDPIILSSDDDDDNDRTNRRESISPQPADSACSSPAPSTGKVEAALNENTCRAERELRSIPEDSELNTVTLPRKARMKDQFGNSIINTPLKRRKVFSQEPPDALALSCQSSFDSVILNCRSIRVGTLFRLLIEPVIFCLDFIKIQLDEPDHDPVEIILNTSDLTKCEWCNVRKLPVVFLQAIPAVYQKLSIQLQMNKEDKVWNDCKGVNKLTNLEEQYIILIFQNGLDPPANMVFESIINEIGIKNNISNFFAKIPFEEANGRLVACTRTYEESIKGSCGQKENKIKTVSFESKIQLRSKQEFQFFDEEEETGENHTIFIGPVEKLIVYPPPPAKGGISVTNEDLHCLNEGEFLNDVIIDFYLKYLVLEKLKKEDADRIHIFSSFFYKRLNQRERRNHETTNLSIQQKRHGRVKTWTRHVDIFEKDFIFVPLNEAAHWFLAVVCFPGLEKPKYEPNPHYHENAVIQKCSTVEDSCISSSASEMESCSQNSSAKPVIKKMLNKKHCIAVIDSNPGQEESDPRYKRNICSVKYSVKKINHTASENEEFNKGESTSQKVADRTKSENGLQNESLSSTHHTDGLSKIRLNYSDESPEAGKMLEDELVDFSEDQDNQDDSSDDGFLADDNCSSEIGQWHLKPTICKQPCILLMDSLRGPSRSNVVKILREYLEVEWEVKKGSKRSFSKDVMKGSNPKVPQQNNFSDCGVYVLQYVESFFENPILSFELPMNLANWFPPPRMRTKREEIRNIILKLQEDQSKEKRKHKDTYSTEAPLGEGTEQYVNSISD

[8] = target: T5, Sentrin-specific protease 8 (Homo sapiens, UniProt Q96LD8); assay type: functional;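 further: luminescence read-out of SENP8 inhibition, dose-response confirmation following an ultra-high-throughput screen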
T5 sequence (Q96LD8 whole entry): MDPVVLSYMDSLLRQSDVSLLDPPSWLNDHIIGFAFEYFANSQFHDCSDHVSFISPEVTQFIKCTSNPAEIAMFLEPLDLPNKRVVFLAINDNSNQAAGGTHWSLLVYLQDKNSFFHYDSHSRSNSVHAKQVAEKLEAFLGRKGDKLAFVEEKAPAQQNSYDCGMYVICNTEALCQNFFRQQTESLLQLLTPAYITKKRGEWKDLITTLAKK

Caspase-3 [9] = target: T3, Caspase-3; test: SAR Analysis of small molecule inhibitors of Sentrin-specific proteases (SENPs) using a Caspase-3 Selectivity assay. [Related pubchem assays (depositor defined):AID2540, AID2599, AID434973, AID489001]; assay type: functional
[10] = target: T2, Sentrin-specific protease 7; test: SENP7 protease inhibitors, SAR follow-up, biochemical, luminescence (AID 504497); assay type: functional
cells [11] = test: cells
[12] = target: T4, Sentrin-specific protease 6; assay type: functional
[13] = target: T5, Sentrin-specific protease 8; test: SENP8 protease inhibitors, SAR follow-up, biochemical, luminescence (AID 504501); assay type: functional
Cytochrome P450 2D6 = Cytochrome P450 2D6 (Homo sapiens, UniProt P10635);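 further: CYP2D6 member of a cytochrome P450 panel assay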
Chain of Cytochrome P450 2D6 (P10635 whole entry): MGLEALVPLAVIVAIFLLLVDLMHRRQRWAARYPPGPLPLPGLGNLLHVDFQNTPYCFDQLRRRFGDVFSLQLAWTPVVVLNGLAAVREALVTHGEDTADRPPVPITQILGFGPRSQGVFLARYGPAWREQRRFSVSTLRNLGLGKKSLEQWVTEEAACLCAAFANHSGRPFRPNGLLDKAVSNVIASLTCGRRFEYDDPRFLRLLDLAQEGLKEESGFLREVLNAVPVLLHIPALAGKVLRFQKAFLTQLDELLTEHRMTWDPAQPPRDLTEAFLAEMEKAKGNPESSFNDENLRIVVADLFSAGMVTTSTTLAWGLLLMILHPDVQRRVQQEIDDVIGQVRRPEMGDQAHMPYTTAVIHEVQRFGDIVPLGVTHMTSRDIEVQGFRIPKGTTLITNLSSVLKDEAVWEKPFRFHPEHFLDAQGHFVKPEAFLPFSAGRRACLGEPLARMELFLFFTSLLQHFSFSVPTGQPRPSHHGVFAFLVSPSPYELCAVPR

[14] = A549 cell cytotoxicity, dose response, cytotoxicity control, 24 h, CellTiter-Glo luminescence, cherry-picks (AID 1053115); assay type: functional, cell-based; settings: A549, 24 h
[15] = Late-stage results from the probe development effort to identify antagonists of arginine vasopressin receptor 1a (AVPR1a): fluorescence-based cell-based dose response AVPR1a inhibition assay.; assay type: functional
Vasopressin V2 receptor = Vasopressin V2 receptor (Homo sapiens, UniProt P30518); test: Late-stage results from the probe development effort to identify antagonists of arginine vasopressin receptor 1a (AVPR1a): fluorescence-based cell-based dose response AVPR2 inhibition counterscreen assay.; assay type: functional
Chain of Vasopressin V2 receptor (P30518 whole entry): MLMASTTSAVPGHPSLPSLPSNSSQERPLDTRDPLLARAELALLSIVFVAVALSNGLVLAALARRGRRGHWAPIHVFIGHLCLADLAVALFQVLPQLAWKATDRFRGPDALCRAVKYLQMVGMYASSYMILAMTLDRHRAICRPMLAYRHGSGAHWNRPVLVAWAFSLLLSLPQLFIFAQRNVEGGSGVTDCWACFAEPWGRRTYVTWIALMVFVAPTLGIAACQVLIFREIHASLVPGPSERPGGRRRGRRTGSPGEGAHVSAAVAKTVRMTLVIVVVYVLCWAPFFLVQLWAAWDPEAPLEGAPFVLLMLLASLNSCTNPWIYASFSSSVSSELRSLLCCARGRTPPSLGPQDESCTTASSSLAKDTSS

[16] = Late-stage results from the probe development effort to identify antagonists of arginine vasopressin receptor 1a (AVPR1a): luminescence-based cell-based dose response counterscreen assay to determine cytotoxicity of the test compound.; assay type: functional
Vasopressin V1b receptor = Vasopressin V1b receptor (Homo sapiens, UniProt P47901); test: Late-stage results from the probe development effort to identify antagonists of arginine vasopressin receptor 1a (AVPR1a): fluorescence-based cell-based dose response AVPR1b inhibition counterscreen assay.; assay type: functional
Chain of Vasopressin V1b receptor (P47901 whole entry): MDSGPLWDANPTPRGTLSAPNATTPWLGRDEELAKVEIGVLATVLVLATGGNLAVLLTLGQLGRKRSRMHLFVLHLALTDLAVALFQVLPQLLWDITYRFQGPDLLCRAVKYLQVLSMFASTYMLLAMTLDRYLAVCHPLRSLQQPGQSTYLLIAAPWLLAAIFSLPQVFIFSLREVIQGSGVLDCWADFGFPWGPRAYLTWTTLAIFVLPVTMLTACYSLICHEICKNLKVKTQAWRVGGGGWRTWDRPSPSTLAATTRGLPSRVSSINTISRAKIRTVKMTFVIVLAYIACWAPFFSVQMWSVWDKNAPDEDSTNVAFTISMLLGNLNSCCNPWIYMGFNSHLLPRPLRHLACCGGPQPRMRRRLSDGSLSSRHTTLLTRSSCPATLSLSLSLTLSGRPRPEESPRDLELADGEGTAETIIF

[17] = Late-stage results from the probe development effort to identify antagonists of arginine vasopressin receptor 1a (AVPR1a): fluorescence-based cell-based dose response OXTR inhibition counterscreen assay.; assay type: functional

SMILES: COc1ccc(S(=O)(=O)NCc2ccncc2)cc1OC
- AC50 [1]: 25.4 µM (active) and 32 µM (active)
- AC50 [2]: > 70 µM (inactive)

SMILES: O=C(Oc1c(-c2ccco2)oc2ccccc2c1=O)c1cccnc1
- IC50 (Aminopeptidase N): 129 µM (active)
- IC50 (cells [3]): 20.5 µM (active)
- EC50 (Kallikrein-7): 19.6 µM (inactive)

SMILES: O=[N+]([O-])c1ccccc1N/N=C/c1c[nH]c2ccccc12
- IC50 [4]: 3.36 µM (active)
- EC50 [5]: > 67.5 µM (inactive)
- IC50 (Nonstructural protein 1): 19 µM (active)
- IC50 (Caspase-3 [6]): 32.8 µM (active)
- IC50 [7]: 5.73 µM (active)
- IC50 [8]: > 100 µM (inactive)
- IC50 (Caspase-3 [9]): 17.4 µM (active)
- IC50 [10]: 2.26 µM (active)
- EC50 (cells [11]): > 67.5 µM (inactive)
- IC50 [12]: > 100 µM (inactive)
- IC50 [13]: 6.32 µM (active)
- AC50 (Cytochrome P450 2D6): 20 µM (inconclusive)

SMILES: CCCNC(=O)N(C)C[C@@H]1Oc2ncc(C#CC3CCCCC3)cc2C(=O)N([C@H](C)CO)C[C@@H]1C
- AC50 [14]: 59.7 µM (active)

SMILES: O=C(C1CCN(c2ccc(Cl)cn2)CC1)N(CC1CC1)c1ccc(Cl)cc1
- IC50 [15]: 0.04 µM (active)
- IC50 (Vasopressin V2 receptor): > 50 µM (inactive)
- CC50 [16]: > 25 µM (inactive)
- IC50 (Vasopressin V1b receptor): > 50 µM (active)
- IC50 [17]: > 50 µM (inactive)
